The values that follow come from patent publication US20050202070A1, “Iodine/iodide-containing hot melt coatable adhesive, methods and uses therefor” (priority 2002, published 2005).

A short description of data set [1]: Solubility of PVPI, I2/NaI and I2 in plasticizer compounds.
The conditions of data set [2]: cited from earlier work.

Like-named read-outs stand apart in the source and are kept apart here.

On to `CCCCNS(=O)(=O)c1ccccc1` [Plasthall BSA, N-n-butylbenzenesulfonamide], for which, in data set [1], the “Solubility of 2% I2/2.4% NaI in the plasticizer” value is given as “Soluble” and the “Solubility of 18% I2 in the plasticizer” value was “Soluble”.

As to `CCCCC(CC)C(=O)OCCOCCOCCOCCOC(=O)C(CC)CCCC` (stereo not shown) [TerMerR 804, tetraethyleneglycol di-2ethylhexanoate], in data set [1], the “Solubility of 2% I2/2.4% NaI in the plasticizer” value was “Soluble” and the “Solubility of 18% I2 in the plasticizer” value is on record as “Soluble”.

For the compound `II` [iodine], the Vapor pressure in data set [2] (at 25C) is on record as 0.30 mmHG; in data set [2] (at 90C), 26.7 mmHg; in data set [2] (at 184.4C (boils)) it was 760 mmHg.
